≈ marks a conversion by molar mass, not a printed value.
How the values were obtained:
Assay in all cases: ≥ marks a high value that may be exact or a test limit, other limits are often not marked, values filed in µg/mL are converted to µM
[1] = system: Bacillus megaterium ATCC 10778
[2] = system: Bacillus subtilis ATCC 6633
[3] = system: Candida albicans MDM8
[4] = system: Candida tropicalis IOC 4560
[5] = system: Enterobacter cloacae beta-12
[6] = system: Escherichia coli SBS 363
[7] = system: Micrococcus luteus A270
[8] = system: Pseudomonas aeruginosa NCIB 10421
[9] = system: Serratia marcescens ATCC 4112
[10] = system: Staphylococcus aureus ATCC 29213
[11] = system: Bacillus amyloliquefaciens ATCC 23842
[12] = system: Bacillus cereus ATCC 14579
[13] = system: Bacillus licheniformis ATCC 14580
[14] = system: Bacillus subtilis ATCC 6051
[15] = system: Enterococcus faecalis 1F-1
[16] = system: Enterococcus faecium 5F-10
[17] = system: Escherichia coli ATCC 25922
[18] = system: Proteus mirabilis ATCC 35659
[19] = system: Pseudomonas aeruginosa PAO1
[20] = system: Salmonella enterica ATCC H9812
[21] = system: Candida albicans ATCC 10231
[22] = system: Cryptococcus neoformans ATCC 32045
[23] = system: Escherichia coli ATCC 2592
[24] = system: Pseudomonas aeruginosa ATCC 10145
[25] = system: Staphylococcus aureus ATCC 33591
[26] = system: Escherichia coli BW25113
[27] = system: Escherichia coli J2210
[28] = system: Escherichia coli JJ2489
[29] = system: Escherichia coli JW0013
[30] = system: Escherichia coli JW0368 ΔsbmA
[31] = system: Escherichia coli JW2778 ΔygdD
[32] = system: Escherichia coli MC1041
[33] = system: Salmonella enterica subsp. enterica serovar Enteritidis MH91989
[34] = system: Salmonella typhimurium SL1344
[35] = system: Pseudomonas aeruginosa 21328
[36] = system: Pseudomonas aeruginosa 25349
[37] = system: Pseudomonas aeruginosa ATCC 27853
[38] = system: Pseudomonas aeruginosa CICC 10419
[39] = system: Pseudomonas aeruginosa CICC 11411
[40] = system: Pseudomonas aeruginosa CICC 11421
[41] = system: Pseudomonas aeruginosa CICC 11431
[42] = system: Pseudomonas aeruginosa CICC 21625
[43] = system: Pseudomonas aeruginosa CICC 21630

For `CC[C@H](C)[C@H](N)C(=O)N[C@@H](CC(C)C)C(=O)NCC(=O)N[C@@H](CCCCN)C(=O)N[C@H](C(=O)N[C@@H](Cc1c[nH]c2ccccc12)C(=O)N[C@@H](CCC(=O)O)C(=O)N1CCC[C@H]1C(=O)N[C@H](C(=O)N[C@@H](CCCCN)C(=O)N[C@@H](CO)C(=O)N[C@@H](CC(C)C)C(=O)N[C@@H](Cc1ccccc1)C(N)=O)[C@@H](C)CC)[C@@H](C)CC` [ILGKIWEPIKSLF], the MIC [1] was 3.13 µM (≈ 4.83 µg/mL), the MIC [2] was 25 µM (≈ 38.6 µg/mL) and the MIC [3] was at least 50 µM. For the same compound, the MIC [4] was 12.5 µM (≈ 19.3 µg/mL), the MIC [5] was at least 50 µM and the MIC [6] was at least 50 µM. It also gave an MIC [7] of 12.5 µM (≈ 19.3 µg/mL), an MIC [8] of at least 50 µM and an MIC [9] of 3.13 µM (≈ 4.83 µg/mL). The MIC [10] was 50 µM (≈ 77.1 µg/mL).

In the case of `CC(C)C[C@H](N)C(=O)N[C@@H](CO)C(=O)N[C@@H](CCCN=C(N)N)C(=O)N[C@H](C(=O)N[C@@H](CC(=O)O)C(=O)O)C(C)C` [LSRVD], the MIC [11] is reported as at least 217 µM, the MIC [12] is reported as at least 217 µM and the MIC [13] is reported as at least 217 µM. It also gave an MIC [14] of at least 217 µM, an MIC [15] of at least 217 µM and an MIC [16] of at least 217 µM. For the same compound, the MIC [17] was 109 µM (≈ 64 µg/mL), the MIC [18] was at least 217 µM and the MIC [19] was over 217 µM. It also gave an MIC [20] of at least 109 µM and an MIC [10] of over 217 µM.

Compound `NCCCC[C@H](NC(=O)[C@H](Cc1ccccc1)NC(=O)[C@H](Cc1ccccc1)NC(=O)[C@H](CCCCN)NC(=O)[C@H](CCCCN)NC(=O)[C@H](Cc1ccccc1)NC(=O)[C@H](Cc1ccccc1)NC(=O)[C@H](CCCCN)NC(=O)[C@H](CCCCN)NC(=O)[C@H](Cc1ccccc1)NC(=O)[C@H](Cc1ccccc1)NC(=O)[C@H](CCCCN)NC(=O)[C@H](CCCCN)NC(=O)[C@H](Cc1ccccc1)NC(=O)[C@H](Cc1ccccc1)NC(=O)[C@H](CCCCN)NC(=O)[C@H](CCCCN)NC(=O)[C@H](Cc1ccccc1)NC(=O)[C@H](Cc1ccccc1)NC(=O)[C@H](CCCCN)NC(=O)[C@H](CCCCN)NC(=O)[C@H](Cc1ccccc1)NC(=O)[C@H](Cc1ccccc1)NC(=O)[C@H](CCCCN)NC(=O)[C@H](CCCCN)NC(=O)[C@H](Cc1ccccc1)NC(=O)[C@H](Cc1ccccc1)NC(=O)[C@@H](N)CCCCN)C(=O)O` [KFFKKFFKKFFKKFFKKFFKKFFKKFFK] has an MIC [21] of 91.3 µM (≈ 354 µg/mL), an MIC [22] of 22.7 µM (≈ 88 µg/mL) and an MIC [23] of at least 32.3 µM. The MIC [24] was at least 32.3 µM and the MIC [25] was at least 64.6 µM.

For `CC(C)C[C@H](NC(=O)[C@H](CCCN=C(N)N)NC(=O)[C@@H]1CCCN1C(=O)[C@H](CCCN=C(N)N)NC(=O)[C@@H]1CCCN1C(=O)[C@@H]1CCCN1C(=O)[C@H](CCCN=C(N)N)NC(=O)[C@@H]1CCCN1C(=O)[C@H](CCC(N)=O)NC(=O)[C@@H]1CCCN1C(=O)[C@H](CCCN=C(N)N)NC(=O)[C@H](Cc1ccc(O)cc1)NC(=O)[C@@H](NC(=O)[C@@H]1CCCN1C(=O)[C@H](CCCCN)NC(=O)[C@H](CC(N)=O)NC(=O)[C@H](CC(N)=O)NC(=O)CN)C(C)C)C(=O)O` [GNNKPVYRPQPRPPRPRL], the MIC [26] was 0.096 µM (≈ 0.206 µg/mL), the MIC [27] was 0.252 µM (≈ 0.54 µg/mL) and the MIC [28] was 0.133 µM (≈ 0.285 µg/mL). The MIC [29] was 0.096 µM (≈ 0.206 µg/mL), the MIC [30] was 0.133 µM (≈ 0.285 µg/mL) and the MIC [31] was 0.192 µM (≈ 0.411 µg/mL). For the same compound, the MIC [32] was 0.126 µM (≈ 0.27 µg/mL), the MIC [33] was 0.096 µM (≈ 0.206 µg/mL) and the MIC [34] was 0.192 µM (≈ 0.411 µg/mL).

Compound `CC(C)C[C@H](NC(=O)[C@H](CCCN=C(N)N)NC(=O)[C@H](CCCN=C(N)N)NC(=O)[C@H](CC(C)C)NC(=O)[C@H](CCCN=C(N)N)NC(=O)[C@H](CCCN=C(N)N)NC(=O)[C@H](CCCN=C(N)N)NC(=O)[C@H](Cc1c[nH]c2ccccc12)NC(=O)[C@H](CCCN=C(N)N)NC(=O)[C@H](CCCN=C(N)N)NC(=O)[C@H](CCCN=C(N)N)NC(=O)[C@H](CC(C)C)NC(=O)[C@H](CCCN=C(N)N)NC(=O)[C@H](CCCN=C(N)N)NC(=O)[C@@H](N)CC(C)C)C(N)=O` [LRRLRRRWRRRLRRL] has an MIC [17] of 7.21 µM (≈ 16 µg/mL), an MIC [35] of 14.4 µM (≈ 32 µg/mL) and an MIC [36] of 3.61 µM (≈ 8 µg/mL). For the same compound, the MIC [37] was 7.21 µM (≈ 16 µg/mL), the MIC [38] was 14.4 µM (≈ 32 µg/mL) and the MIC [39] was 14.4 µM (≈ 32 µg/mL). It also gave an MIC [40] of 14.4 µM (≈ 32 µg/mL), an MIC [41] of 7.21 µM (≈ 16 µg/mL) and an MIC [42] of 7.21 µM (≈ 16 µg/mL). It also gave an MIC [43] of 7.21 µM (≈ 16 µg/mL) and an MIC [10] of 7.21 µM (≈ 16 µg/mL).

Compound `C[C@H](NC(=O)[C@H](Cc1ccccc1)NC(=O)[C@H](CCCCN)NC(=O)[C@H](CCCCN)NC(=O)[C@H](C)NC(=O)[C@H](Cc1ccccc1)NC(=O)[C@H](CCCCN)NC(=O)[C@H](CCCCN)NC(=O)[C@H](C)NC(=O)[C@H](Cc1ccccc1)NC(=O)[C@@H](N)CCCCN)C(=O)N[C@@H](CCCCN)C(=O)O` [KFAKKFAKKFAK] has an MIC [21] of 260 µM (≈ 374 µg/mL), an MIC [22] of at least 123 µM and an MIC [23] of at least 173 µM. For the same compound, the MIC [24] was at least 347 µM and the MIC [25] was at least 347 µM.

Work on `CC(C)C[C@H](NC(=O)[C@H](CCC(=O)O)NC(=O)[C@H](CC(=O)O)NC(=O)[C@@H](NC(=O)[C@H](CCCN=C(N)N)NC(=O)[C@H](CO)NC(=O)[C@@H](N)CC(C)C)C(C)C)C(=O)O` [LSRVDEL] yielded an MIC [11] of at least 154 µM, an MIC [12] of at least 154 µM and an MIC [13] of at least 154 µM. For the same compound, the MIC [14] was at least 154 µM, the MIC [15] was at least 154 µM and the MIC [16] was at least 154 µM. The MIC [17] was over 154 µM, the MIC [18] was at least 154 µM and the MIC [19] was over 154 µM. It also gave an MIC [20] of at least 154 µM and an MIC [10] of over 154 µM.

Work on `CC(C)C[C@H](NC(=O)[C@H](CCCN=C(N)N)NC(=O)[C@H](CCCN=C(N)N)NC(=O)[C@H](CC(C)C)NC(=O)[C@H](CCCN=C(N)N)NC(=O)[C@H](CCCN=C(N)N)NC(=O)[C@H](CCCN=C(N)N)NC(=O)[C@H](Cc1c[nH]c2ccccc12)NC(=O)[C@H](Cc1c[nH]c2ccccc12)NC(=O)[C@H](Cc1c[nH]c2ccccc12)NC(=O)[C@H](CCCN=C(N)N)NC(=O)[C@H](CCCN=C(N)N)NC(=O)[C@H](CCCN=C(N)N)NC(=O)[C@H](CC(C)C)NC(=O)[C@H](CCCN=C(N)N)NC(=O)[C@H](CCCN=C(N)N)NC(=O)[C@@H](N)CC(C)C)C(N)=O` [LRRLRRRWWWRRRLRRL] yielded an MIC [17] of 1.54 µM (≈ 4 µg/mL), an MIC [35] of 1.54 µM (≈ 4 µg/mL) and an MIC [36] of 1.54 µM (≈ 4 µg/mL). For the same compound, the MIC [38] was 3.09 µM (≈ 8 µg/mL), the MIC [39] was 1.54 µM (≈ 4 µg/mL) and the MIC [40] was 3.09 µM (≈ 8 µg/mL). It also gave an MIC [41] of 1.54 µM (≈ 4 µg/mL), an MIC [42] of 3.09 µM (≈ 8 µg/mL) and an MIC [43] of 1.54 µM (≈ 4 µg/mL). For the same compound, the MIC [10] was 3.09 µM (≈ 8 µg/mL).
